Data: patent US20260287509A1, “METHOD FOR MEASURING CELLULAR MECHANICS IN AN IN VITRO FIBROSIS MODEL” (National Cheng Kung University, priority 2023, published 2026)

Tests used:
NRK-49F cells [1] = test: Confocal fluorescence imaging of FITC-labeled collagen fibers in NRK-49F cultures (FITC content); type: cell-based, rat; settings: after TGF-β1 stimulation vs control; FIG. 3 and FIG. 4 (FITC content)
Procedure: (§1) To clearly distinguish the cells from surrounding proteins, the method employs multiple fluorescent proteins for labeling. In this embodiment, rat renal fibroblasts (NRK-49F cells) were transfected to express Lifeact-RFP and cultured on collagen gels conjugated with FITC-labeled type-I collagen. The cultures were divided into a group treated with TGF-β1 and a control group without TGF-β1. TGF-β1 was added to mimic the activation of fibroblasts into myofibroblasts in fibrotic conditions such as kidney fibrosis and keloid, enabling subsequent analysis of cell contraction and collagen fiber interactions.
(§2) In this embodiment, the coaxial microscope system combines a laser-scanning confocal microscope (FV3000, Olympus) with sharp tip probe-equipped atomic-force microscope (BioScope Resolve, Bruker) […]. Before measurement, the spring constant, deflection sensitivity, and position of the probe were calibrated using No-Touch mode in AFM and vision in confocal microscopy.
FIG. 2 schematically illustrates a simplified experimental workflow for selecting the regions of interest and examining the sample using a coaxial microscope system of the laser scanning confocal microscope and the atomic force microscope. […] Finally, the fluorescence and morphological images are merged, and the mechanical properties of the cells and collagen fibers are analyzed using software

NRK-49F cells [2] = test: Atomic force microscope measurement of stiffness and morphology of NRK-49F cells and collagen fibers in the in vitro fibrosis model (coaxial AFM/confocal system); type: cell-based, rat
Procedure: as §1, §2
Additionally, prior to measurement, a hydrophobic material is coated onto the sharp tip probe of the atomic force microscope. This prevents the probe from adhering to collagen fibers during scanning of the sample, thereby maintaining measurement accuracy.
After calibration, the regions of interest can be selected, captured, and measured using the coaxial microscope system. The elastic moduli are calculated from force-distance curves using a modified Sneddon model implemented in Bruker data-analysis software. Collagen fibers and cells are further analyzed for morphology and rigidity using NanoScope Analysis software (v1.9, Bruker).
FIG. 2 schematically illustrates a simplified experimental workflow for selecting the regions of interest and examining the sample using a coaxial microscope system of the laser scanning confocal microscope and the atomic force microscope. FITC-labeled collagen gels are prepared and seeded with Lifeact-RFP-transfected NRK-49F cells. After 24 hours of culture, drugs are added and media are refreshed. The prepared sample is mounted on the coaxial microscope system, the scan area is marked, and the sample is adjusted to the pre-marked area. Subsequently, images are acquired using the coaxial confocal microscope and atomic force microscope. Finally, the fluorescence and morphological images are merged, and the mechanical properties of the cells and collagen fibers are analyzed using software

[3] = after TGF-β1 treatment vs control, AFM images, figure not shown

transforming growth factor β1 [TGF-β1]
density of collagen fibers (NRK-49F cells [1]): markedly increased | increase in stiffness of collagen fibers (NRK-49F cells [2]; TGF-β1-treated vs control without TGF-β1, FITC-labeled type-I collagen gel seeded with Lifeact-RFP NRK-49F cells, AFM elastic modulus, FIG. 6): approximately 6.5 fold | increase in stiffness of NRK-49F cells (NRK-49F cells [2]; TGF-β1-treated vs control without TGF-β1, Lifeact-RFP NRK-49F cells on collagen gel, AFM elastic modulus, FIG. 6): ~6.7 fold | angle between collagen fibers and NRK-49F cells (A) (NRK-49F cells [2]; [3]): no significant difference | diameter of collagen fibers (D1) (NRK-49F cells [2]; [3]): no significant difference
